Legend:
[1] = Liver microsomal stability; assay type: in vitro ADME; settings: 30 min incubation with human liver microsome, 10 μM
[2] = system: HeLa cells; experiment: Autophagic flux in HeLa cells (RFP-LC3/LAMP1, mRFP-GFP-LC3, FYVE-dsRed, immunoblot); assay type: cell-based
Procedure: FIG. 2 indicates the results of the Hela Cells treated with Compound of formula I (hereinafter referred to as MSL) showing the increase of the autophagic flux in the cells treated. FIG. 2A indicates the results of the experiments in which HeLa cells transfected with RFP-LC3 plasmid for 48 hrs were treated with compound MSL of the present disclosure or vehicle control for 1 hr, which were then […] with antibody against LAMP1. The arrows indicate puncta. LC3 or the number of puncta was also indicated as bar graph. FIG. 2B indicates the results of the experiments in which HeLa cells transfected with mRFP-GFP-LC3 plasmid for 48 hrs were treated with compound MSL of the present disclosure or vehicle control for 1 hr, in which autophagosome (yellow puncta) or autophagolysosome (red puncta) were measured using Image J software. The number of puncta was indicated as bar graph. FIG. 2C indicates the results of the experiments in which HeLa cells transfected with FYVE-dsRed plasmid for 48 hrs were treated with compound MSL of the present disclosure or vehicle control for 1 hr, in which the number of FYVE-dsRed vesicles was measured. The measured value were average of the values obtained from at least 3 images. Error bars, S.D. **, P<0.01; ***, P<0.001.
FIG. 10 is the result of the experiments using compound of formula 2 (hereinafter referred to as MSL-7) of the present disclosure as an autophagic enhancer. FIG. 10A is the result of immuneblot using the antibodies indicated using Hela cells treated with MSL or MSL-7. FIG. 10B is the result of measuring the viability of Hela cells treated with vehicle control or various concentration of MSL-7 (50-100 μM) for 48 hrs. FIG. 10C is the result of DAPI stained nuclei of TFEB-GFP HeLa cells which were treated with vehicle control or MSL-7 for 4 hrs. The graph indicates the percentage of TFEB translocated into the nuclei. Error bars, S.D. *, P<0.05; **, P<0.01; ***, P<0.001.
FIG. 12 indicates the improvement of the metabolic profile of HFD-feed mice by MSL-7: (FIG. 12A) Confocal microscopic result of HeLa cells transfected with tandem mRFP-GFP-LC3 and treated with MSL-7 in which red puncta indicates autophagolysosome. (FIG. 12B, 12C) 8 week old male C57BL/6 mice were fed with HFD or normal chow diet (NCD) for 8 weeks, and then 50 mg/kg MSL-7 was administered three times a week for 8 weeks. Non-fasting glucose level (FIG. 12B) and body weight (FIG. 12C) were monitored. (FIG. 12D) IPGTT. (FIG. 12E) AUC curve of (FIG. 12D). (FIG. 12F) ITT. (FIG. 12G) AUC curve of (FIG. 12F).
Screening of autophagy enhancer. […] Luciferase assay. Firefly and Renilla luciferase assays were conducted using the Dual-Luciferase Reporter Assay System (Promega) according to the manufacturer's recommendation. In brief, cells were lysed in 1× lysis buffer and subjected to a single round of freezing/thawing. Firefly luciferase was determined after mixing 5 μl of lysate with 25 μl of Luciferase Assay Reagent II. Renilla luciferase was then determined after further addition of 20 ul of Stop&Glo Reagent. Cell culture and media and drugs treatment. […]

| SMILES | microsomal stability, remaining [1] | autophagy-enhancing activity ([2]; immunoblot, FIG. 10A) | formation of autophagolysosome ([2]; mRFP-GFP-LC3, red puncta) | Recruitment of FYVE-dsRed+ vesicle ([2]; 1 hr) | LC3+ autophagosome colocalization with lysosomal marker LAMP1 ([2]; RFP-LC3 transfected, 1 hr) | number of yellow puncta (early autophagic organelles) and red puncta (autolysosomes) ([2]; mRFP-GFP-LC3B probe, 1 hr) |
| --- | --- | --- | --- | --- | --- | --- |
| COc1oc(-c2ccccc2Cl)nc1S(=O)(=O)c1ccccc1 [MSL-7, 2-(2-chlorophenyl)-5-methoxy-4-(phenylsulfonyl) oxazole] | 90.5% | definite autophagy-enhancing activity | induced | – | – | – |
| CSc1oc(-c2ccccc2)nc1S(=O)(=O)c1ccc(F)cc1 [MSL] | less than 10% | – | – | increased | positive for the lysosomal markers LAMP1 | increases |

— patent US10881642B2, “Autophagy enhancer and use thereof” (Industry-Academic Cooperation Foundation, Yonsei University, priority 2016, dated 2021)
